Test results published in patent US6992218B2, “Method for obtaining aqueous formulations of oxidation-sensitive active principles” (Pharmatop SCR, priority 2000, dated 2006).
Like-named read-outs stand apart in the source and are kept apart here.

How the values were obtained:
[1] = Example IX: stability of 1% Dobutamine sulphate solution at 50° C.; format: physicochemical
Description: A Dobutamine sulphate solution is prepared by dissolving 1 g Dobutamine in 50 ml of water and 19 ml of a 0.10% sodium ascorbate solution is added, with continuous bubbling of nitrogen. Then 25 mg hydrated cysteine chlorhydrate and 70 mg hydrated sodium citrate are added, then 700 mg sodium chloride to ensure isotonicity. The solution is made up to 100 ml by the addition of distilled water for injectable preparations.
It is filled into 100 ml bottles under nitrogen until the residual oxygen content is below 0.8 ppm. The bottles are then stoppered under vacuum (approx. 10,000 Pa) and sterilized at 121° C. for 20 minutes.
After removal from the autoclave, the bottles are kept in darkness in a thermostatic cupboard at 50° C.
An evaluation is made of absorption at 308 nm as an indication of oxidation into secondary products, the residual oxygen content and the residual cysteine content immediately after sterilization, then after being kept for 14 days at 50° C.
Coloration remains slight and reduces as the pH increases.

[2] = Example V: residual cysteine in buffered aqueous cysteine solutions; format: physicochemical; settings: 0.25 mg/ml cysteine, approx. 7 ppm O2, darkness 25° C. 3 days
Description: A 0.25 mg/ml aqueous cysteine solution was adjusted to pH 5.5, made isotonic by sodium chloride and buffered using as a buffering agent: dehydrated sodium citrate (0.70 mg/ml), sodium acetate, sodium hydrogenophosphate, in quantities equimolar to that of the citrate. […] They were kept in darkness at 25° C. for 3 days.

[3] = Example VI: buffered paracetamol + cysteine solutions without deoxygenation; format: physicochemical; settings: 10 mg/ml paracetamol + 0.25 mg/ml cysteine, no inert gas, darkness 25° C. 3 days
Description: A quantity of sodium citrate (in the form of dihydrated disodic citrate) was added to 10 mg/ml aqueous paracetamol solutions, made isotonic by NaCl and stabilized by the addition of cysteine hydrochlorhide (0.25 mg/ml) suitable for adjusting the pH to 5.5. […] Comparative solutions were prepared without sodium citrate or replacing the citrate ions by equimolar quantities to those of the citrate, of either sodium acetate, or sodium hydrogenophosphate; in all cases adjusting the pH to a value of 5.5 by the addition of sodium hydroxide or hydrochloric acid.
The solutions were not subjected to bubbling with inert gas (nitrogen) and were kept in darkness at 25° C. for 3 days.

[4] = for coloration: sterilized 121° C. 15 min
Description: A 10 mg/ml aqueous paracetamol solution is prepared. Adjustment to pH 5.5 is carried out by the addition of HCl, and buffering by the addition of sodium hydrogenophosphate.
Deoxygenation is then carried out by bubbling with nitrogen, until a residual oxygen content of approximately 0.2 ppm is obtained. After the bottles are filled with the solution during prolonged bubbling with nitrogen, they are sterilized at 121° C. for 15 minutes.
In another test, the paracetamol solution, after being subjected to bubbling with nitrogen, has been packaged under nitrogen.

[5] = Description: A 10 mg/ml aqueous paracetamol solution adjusted to pH 5.5 by sodium hydroxide and buffered at this value by sodium acetate was made isotonic by a sufficient quantity of sodium chloride, then an antioxidant is added to it, in this case 0.20 mg/ml cysteine chlorhydrate. This solution was subjected to bubbling with nitrogen then placed under vacuum (low pressure approx. 550 mm of Hg) before stoppering the bottles. […] After sterilization, the bottles containing this solution were kept for 24 months at 25° C.
[6] = ambient temperature under light, and 70° C. in darkness; nitrogen bubbling, filling under nitrogen, antioxidant added; cited from earlier work
[7] = Example III: stability of paracetamol solution with or without citrate ions; format: physicochemical; settings: O2 approx. 0.4 ppm, sterilized
Description: Thus a 10 mg/ml paracetamol solution adjusted to pH 5.5 by hydrochloric acid was subjected to bubbling with nitrogen until an oxygen content of approximately 0.4 ppm was obtained. The bottles were sterilized at 121° C. for 15 minutes and kept at ambient temperature. […] After bubbling with nitrogen, the residual oxygen content is of the order of 0.4 ppm. Afterwards the solution is packaged into bottles under vacuum and sterilized at 121° C. for 15 minutes. The bottles are kept for 67 days at ambient temperature.

[8] = Paracetamol solution with trisodic citrate kept at 40° C. (general statement); format: physicochemical
Description: In particular, in the case of paracetamol, after the addition of trisodic citrate at a concentration of 70 mg/100 ml of solution, the residual cysteine concentration is approximately double than that of preparations without citrate, no coloration appeared, even after 7 weeks at 40° C., and there was no variation in the concentration of paracetamol.

[9] = pH 5.5, sodium hydrogenophosphate
[10] = trisodic citrate 70 mg/100 ml, after 7 weeks at 40° C.

CC(CCc1ccc(O)cc1)NCCc1ccc(O)c(O)c1 (stereo not drawn) [Dobutamine]
degradation of the Dobutamine in heat ([1]; 1% solution with ascorbate, cysteine, citrate, vacuum, sterilized 121° C. 20 min, kept at 50° C.): no degradation
secondary peaks by liquid chromatography, absorption at 308 nm ([1]; degree decreases as the pH increases): appearance of secondary peaks
coloration ([1]; reduces as the pH increases): slight

N[C@@H](CS)C(=O)O [cysteine]
residual cysteine content ([2]; pH 5.5, citrate 0.70 mg/ml): lowest
residual cysteine content ([2]; pH 5.5, non-buffered): 15%
residual cysteine content ([2]; pH 5.5, sodium acetate): 18%
residual cysteine content [2, 9]: 21%
residual cysteine ([3]; pH 5.5, citrate approx. 0.7 mg/ml): 22%
residual cysteine ([3]; pH 5.5, non-buffered): 42%
residual cysteine ([3]; pH 5.5, sodium acetate): 17%
residual cysteine [3, 9]: 21%

CC(=O)Nc1ccc(O)cc1 [paracetamol]
coloration ([4]; 10 mg/ml, pH 5.5, no antioxidant, O2 approx. 0.2 ppm, 6 months at 25° C.): colourless
paracetamol content ([4]; 10 mg/ml, pH 5.5, no antioxidant, O2 approx. 0.2 ppm, sterilized, 6 months at 25° C.): no change
content of degradation products of paracetamol determined by HPLC ([4]; 6 months, 10 mg/ml, pH 5.5): lower than 0.015 % of the paracetamol
coloration ([4]; packaged under nitrogen, vacuum < 10,000 Pa, O2 0.16 ppm, 8 days at 30° C.): colourless
paracetamol content ([5]; 0.20 mg/ml cysteine chlorhydrate, O2 approx. 1.5 ppm, sterilized, 24 months at 25° C.): 100 % of the original value
coloration ([5]; 10 mg/ml, pH 5.5, acetate buffer, 0.20 mg/ml cysteine chlorhydrate, vacuum, O2 approx. 1.5 ppm, sterilized, 24 months at 25° C.): colourless
degradation products of the paracetamol measured by HPLC ([5]; 24 months, 10 mg/ml, pH 5.5): less than 0.02 % of the paracetamol content
time for which aqueous solutions are stable [6]: 48 h
coloration ([7]; 10 mg/ml with citric acid/sodium citrate, under vacuum, 67 days at ambient temperature): perfectly colourless
coloration ([7]; 10 mg/ml, pH 5.5 by HCl, no citrate, 9 days at ambient temperature): yellow-pink
residual cysteine concentration versus preparations without citrate ([8]; trisodic citrate 70 mg/100 ml of solution): approximately double
coloration [8, 10]: no coloration
variation in the concentration of paracetamol [8, 10]: no variation
